Laboratory results as given in US5338869A, “Hydroxyphenylpropionic ester having novel crystal structure” (Sumitomo Chemical Company, Limited, priority 1992, dated 1994).

Experiments:
Assay type in all cases: physicochemical
[1] = Angle of spatula of crystals
[2] = Angle of repose of crystals
[3] = Bulk specific gravity (packed state)
[4] = Hygroscopicity: moisture content after exposure to 100% relative humidity (Karl Fischer method); settings: for Hygroscopicity (Water content in % by weight): room temperature, relative humidity 100%
Text: Consequently, the crystals can be used conveniently and advantageously with no additional treatment, such as re-drying and moisture-proof packing, even in such uses as the production of polyurethane, which is susceptible to the influence of moisture.

[5] = Solubility in organic solvents at 20° C.

| Angle of Spatula [1] | Angle of Repose [2] | Bulk Specific Gravity [3] | Hygroscopicity (Water content in % by weight) ([4]; exposure period 0 Days) | Hygroscopicity (Water content in % by weight) ([4]; exposure period 1 Day) | Hygroscopicity (Water content in % by weight) ([4]; exposure period 50 Days) | Hygroscopicity (Water content in % by weight) ([4]; exposure period 100 Days) | Solubility at 20° C. ([5]; Cyclohexane) | Solubility at 20° C. ([5]; Methanol) | Solubility at 20° C. ([5]; Toluene) | SMILES | hygroscopicity (in words) ([4]; compared with the prior αβ- and δ-crystals) | solubility in organic solvents (in words) ([5]; compared with the δ-crystals and the αβ-crystals) |
| --- | --- | --- | --- | --- | --- | --- | --- | --- | --- | --- | --- | --- |
| 65 ° | 50 ° | 0.43 |  |  |  |  |  |  |  | Cc1cc(CCC(=O)OCC(C)(C)C2OCC3(CO2)COC(C(C)(C)COC(=O)CCc2cc(C)c(O)c(C(C)(C)C)c2)OC3)cc(C(C)(C)C)c1O (stereo not shown) [Comparative Example 1, 3,9-bis[2-{3-(3-t-butyl-4-hydroxy-5-methylphenyl)propionyloxy}-1,1-dimethylethyl]-2,4,8,10-tetraoxaspiro[5.5]undecane, reference compound] |  |  |
| 74 ° | 53 ° | 0.40 |  |  |  |  |  |  |  | Cc1cc(CCC(=O)OCC(C)(C)C2OCC3(CO2)COC(C(C)(C)COC(=O)CCc2cc(C)c(O)c(C(C)(C)C)c2)OC3)cc(C(C)(C)C)c1O (stereo not shown) [Comparative Example 2, 3,9-bis[2-{3-(3-t-butyl-4-hydroxy-5-methylphenyl)propionyloxy}-1,1-dimethylethyl]-2,4,8,10-tetraoxaspiro[5.5]undecane, reference compound] |  |  |
| 57 ° | 45 ° | 0.59 |  |  |  |  |  |  |  | Cc1cc(CCC(=O)OCC(C)(C)C2OCC3(CO2)COC(C(C)(C)COC(=O)CCc2cc(C)c(O)c(C(C)(C)C)c2)OC3)cc(C(C)(C)C)c1O (stereo not shown) [Example 1, 3,9-bis[2-{3-(3-t-butyl-4-hydroxy-5-methylphenyl)propionyloxy}-1,1-dimethylethyl]-2,4,8,10-tetraoxaspiro[5,5]undecane] |  |  |
| 58 ° | 45 ° | 0.60 |  |  |  |  |  |  |  | Cc1cc(CCC(=O)OCC(C)(C)C2OCC3(CO2)COC(C(C)(C)COC(=O)CCc2cc(C)c(O)c(C(C)(C)C)c2)OC3)cc(C(C)(C)C)c1O (stereo not shown) [Example 2, 3,9-bis[2-{3-(3-t-butyl-4-hydroxy-5-methylphenyl)propionyloxy}-1,1-dimethylethyl]-2,4,8,10-tetraoxaspiro[5.5]undecane] |  |  |
| 58 ° | 47 ° | 0.66 |  |  |  |  |  |  |  | Cc1cc(CCC(=O)OCC(C)(C)C2OCC3(CO2)COC(C(C)(C)COC(=O)CCc2cc(C)c(O)c(C(C)(C)C)c2)OC3)cc(C(C)(C)C)c1O (stereo not shown) [Example 3, 3,9-bis[2-{3-(3-t-butyl-4-hydroxy-5-methylphenyl)propionyloxy}-1,1-dimethylethyl]-2,4,8,10-tetraoxaspiro[5.5]undecane] |  |  |
|  |  |  | 0.10 % by weight | 0.47 % by weight | 0.50 % by weight | 0.45 % by weight | 0.06 g/100 g solvent | 9 g/100 g solvent | 15 g/100 g solvent | Cc1cc(CCC(=O)OCC(C)(C)C2OCC3(CO2)COC(C(C)(C)COC(=O)CCc2cc(C)c(O)c(C(C)(C)C)c2)OC3)cc(C(C)(C)C)c1O (stereo not shown) [δ-Crystal, 3,9-bis[2-{3-(3-t-butyl-4-hydroxy-5-methylphenyl)propionyloxy}-1,1-dimethylethyl]-2,4,8,10-tetraoxaspiro[5.5]undecane, reference compound] |  |  |
|  |  |  | 0.04 % by weight | 0.06 % by weight | 0.05 % by weight | 0.05 % by weight | 0.02 g/100 g solvent | 4 g/100 g solvent | 9 g/100 g solvent | Cc1cc(CCC(=O)OCC(C)(C)C2OCC3(CO2)COC(C(C)(C)COC(=O)CCc2cc(C)c(O)c(C(C)(C)C)c2)OC3)cc(C(C)(C)C)c1O (stereo not shown) [ε-Crystal, 3,9-bis[2-{3-(3-t-butyl-4-hydroxy-5-methylphenyl)propionyloxy}-1,1-dimethylethyl]-2,4,8,10-tetraoxaspiro[5.5]undecane] | smaller in hygroscopicity than the prior αβ- and δ-crystals | lower solubility in organic solvents than the δ-crystals and the αβ-crystals |
